Assay results reported in patent US11384060B2, “Amide compounds and use thereof” (ALPHALA CO., LTD., priority 2017, dated 2022).
Where two headings read alike, the source gives them in different places.

Experiments:
[1] = biological target: T1, glucagon receptor (GCGR) (Homo sapiens, UniProt P47871); assay: I125-glucagon binding assay (competition, GCGR membrane fractions)
T1 construct: expressed in transfected cells; host or cells: CHO-K1 cells overexpressing GCGR (membrane fractions)
Summary of the method: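 Membranes from CHO-K1 cells overexpressing GCGR, 7.5 μg/well in 50 mM Tris pH 7.4 with 0.5% BSA, were preincubated 5 min with serially diluted compounds, then given 0.0625 nM final I^125-glucagon for 30 min at 25° C. Bound label was filtered on PEI-coated GF/B and counted; IC50 by non-linear regression.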

[2] = biological target: T2, glucagon receptor (GCGR) overexpressed CHO-K1 cells or human primary hepatocytes (Homo sapiens, UniProt P47871); assay: Glucagon cAMP inhibition assay (Cisbio cAMP Dynamic 2 HTRF); assay type: cell-based
T2 construct: expressed in transfected cells; host or cells: GCGR overexpressed CHO-K1 cells or human primary hepatocytes (endogenous receptor)
Summary of the method: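 GCGR-overexpressing CHO-K1 cells or human primary hepatocytes in HBSS with 0.1% BSA and 800 nM IBMX, pre-incubated 30 min with serially diluted compounds (1% DMSO final), then stimulated 30 min at room temperature with glucagon at its EC50. cAMP measured by HTRF after 60 min lysis; IC50 by non-linear regression.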

[3] = competition with I125-glucagon 0.0625 nM, membrane fractions of GCGR overexpressed CHO-K1 cells
[4] = inhibition of glucagon (EC50 concentration) induced cAMP production

T1 sequence (P47871 26-477): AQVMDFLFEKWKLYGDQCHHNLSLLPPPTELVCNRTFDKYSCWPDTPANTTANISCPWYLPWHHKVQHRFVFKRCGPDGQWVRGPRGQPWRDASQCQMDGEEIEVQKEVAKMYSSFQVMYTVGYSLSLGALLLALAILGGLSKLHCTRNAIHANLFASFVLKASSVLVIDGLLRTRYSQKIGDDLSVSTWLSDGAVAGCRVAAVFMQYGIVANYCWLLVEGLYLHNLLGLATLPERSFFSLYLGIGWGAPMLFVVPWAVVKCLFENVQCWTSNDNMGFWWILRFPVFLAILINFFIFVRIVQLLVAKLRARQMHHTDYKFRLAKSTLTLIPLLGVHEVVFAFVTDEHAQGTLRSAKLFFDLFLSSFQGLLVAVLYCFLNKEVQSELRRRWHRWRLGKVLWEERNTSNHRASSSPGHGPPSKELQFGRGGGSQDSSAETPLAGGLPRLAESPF
T2 sequence (P47871 26-477): as above

SMILES | IC50 [1] [µM] | IC50 cAMP [2] [µM] | IC50 ([1]; uM) [µM] | IC50 [1, 3] [µM] | IC50 cAMP [2, 4] [µM]
CCCC[C@@H](COc1ccc(-c2ccc(C(F)(F)F)cc2F)cn1)Nc1ccc(C(=O)NCCC(=O)O)cc1 [Compound 15-26, (S)-3-(4-((1-((5-(2-fluoro-4-(trifluoromethyl)phenyl)pyridin-2-yl)oxy)hexan-2-yl)amino)benzamido)propanoic Acid] | 0.228 | 0.2066 | – | – | –
O=C(O)CCNC(=O)c1ccc(N[C@H](COc2ccc(C(F)(F)F)cn2)c2ccc(-c3ccc(C(F)(F)F)cc3)cc2)cc1 [Compound 15-27, (S)-3-(4-((1-(4′-(trifluoromethyl)-[1,1′-biphenyl]-4-yl)-2-((5-(trifluoromethyl)pyridin-2-yl)oxy)ethyl)amino)benzamido)propanoic Acid] | 0.101 | 0.316 | – | – | –
O=C(NCCS(=O)(=O)O)c1ccc(N[C@H](COc2ccc(-c3cc4ccccc4o3)cn2)c2ccc(-c3ccc(C(F)(F)F)cc3)cc2)cc1 [Compound 15-28, (S)-2-(4-((2-((5-(benzofuran-2-yl)pyridin-2-yl)oxy)-1-(4′-(trifluoromethyl)-[1,1′-biphenyl]-4-yl)ethyl)amino)benzamido)ethane-1-sulfonic Acid] | 0.1 | 11.647 | – | – | –
O=C(O)CCNC(=O)c1ccc(N[C@H](COc2ccc(-c3cc4ccccc4o3)cn2)c2ccc(-c3ccc(C(F)(F)F)cc3)cc2)cc1 [Compound 15-29, (S)-3-(4-((2-((5-(benzofuran-2-yl)pyridin-2-yl)oxy)-1-(4′-(trifluoromethyl)-[1,1′-biphenyl]-4-yl)ethyl)amino)benzamido)propanoic Acid] | 0.02 | 0.107 | – | – | –
CC(C)(C)c1nnc(-c2ccc(OC[C@@H](Nc3ccc(C(=O)NCCC(=O)O)cc3)c3ccc(-c4ccc(C(F)(F)F)cc4)cc3)nc2)o1 [Compound 15-30, (S)-3-(4-((2-((5-(5-(tert-butyl)-1,3,4-oxadiazol-2-yl)pyridin-2-yl)oxy)-1-(4′-(trifluoromethyl)-[1,1′-biphenyl]-4-yl)ethyl)amino)benzamido)propanoic Acid] | 2 | 18.257 | – | – | –
CCOC(=O)CCNC(=O)c1ccc(N[C@H](COc2ccc(-c3nnc(C(C)(C)C)o3)cn2)c2ccc(-c3ccc(C(F)(F)F)cc3F)cc2)cc1 [Compound 15-31, Ethyl (S)-3-(4-((2-((5-(5-(tert-butyl)-1,3,4-oxadiazol-2-yl)pyridin-2-yl)oxy)-1-(2′-fluoro-4′-(trifluoromethyl)-[1,1′-biphenyl]-4-yl)ethyl)amino)benzamido)propanoate] | > 30 | >30 | – | – | –
CC(C)(C)c1nnc(-c2ccc(OC[C@@H](Nc3ccc(C(=O)NCCC(=O)O)cc3)c3ccc(-c4ccc(C(F)(F)F)cc4F)cc3)nc2)o1 [Compound 15-32, (S)-3-(4-((2-((5-(5-(tert-butyl)-1,3,4-oxadiazol-2-yl)pyridin-2-yl)oxy)-1-(2′-fluoro-4′-(trifluoromethyl)-[1,1′-biphenyl]-4-yl)ethyl)amino)benzamido)propanoic Acid] | 0.151 | 0.809 | – | – | –
CCOC(=O)CCNC(=O)c1ccc(N[C@H](COc2ccc(-c3nnc(C(C)(C)C)o3)cn2)c2ccc(-c3ccc(Cl)cc3Cl)cc2)cc1 [Compound 15-33, Ethyl (S)-3-(4-((2-((5-(5-(tert-butyl)-1,3,4-oxadiazol-2-yl)pyridin-2-yl)oxy)-1-(2′,4′-dichloro-[1,1′-biphenyl]-4-yl)ethyl)amino)benzamido)propanoate] | > 30 | >30 | – | – | –
COc1cnc(-c2ccc([C@@H](COc3ccc(-c4cc5ccccc5o4)cn3)Nc3ccc(C(=O)NCCS(=O)(=O)O)cc3)cc2)nc1 [Compound 15-35, (S)-2-(4-((2-((5-(benzofuran-2-yl)pyridin-2-yl)oxy)-1-(4-(5-methoxypyrimidin-2-yl)phenyl)ethyl)amino)benzamido)ethane-1-sulfonic Acid] | 0.584 | >30 | – | – | –
CCOC(=O)CCNC(=O)c1ccc(N[C@H](COc2ccc(-c3nc4ccccc4s3)cn2)C(C)C)cc1 [Compound 15-36, Ethyl (S)-3-(4-((1-((5-(benzo[d]thiazol-2-yl)pyridin-2-yl)oxy)-3-methylbutan-2-yl)amino)benzamido)propanoate] | – | 1.973 | > 30 | – | –
CC[C@H](C)[C@@H](COc1ccc(-c2ccc(C(F)(F)F)cc2)nn1)Nc1ccc(C(=O)NCCC(=O)O)cc1 [Compound 17-3, 3-(4-(((2S,3S)-3-methyl-1-((6-(4-(trifluoromethyl)phenyl)pyridazin-3-yl)oxy)pentan-2-yl)amino)benzamido)propanoic Acid] | – | – | – | 0.989 | 1.307

Now from value to compound:

IC50 [1] [µM] | IC50 cAMP [2] [µM] | IC50 ([1]; uM) [µM] | IC50 [1, 3] [µM] | IC50 cAMP [2, 4] [µM] | SMILES
3 | 4.558 | – | – | – | CC(C)(C)c1nnc(-c2ccc(OC[C@@H](Nc3ccc(C(=O)NCCC(=O)O)cc3)c3ccc(-c4ccc(Cl)cc4Cl)cc3)nc2)o1 [Compound 15-34, (S)-3-(4-((2-((5-(5-(tert-butyl)-1,3,4-oxadiazol-2-yl)pyridin-2-yl)oxy)-1-(2′,4′-dichloro-[1,1′-biphenyl]-4-yl)ethyl)amino)benzamido)propanoic Acid]
0.468 | 1.609 | – | – | – | CC(C)[C@@H](COc1ccc(-c2nc3ccccc3s2)cn1)Nc1ccc(C(=O)NCCC(=O)O)cc1 [Compound 15-37, (S)-3-(4-((1-((5-(benzo[d]thiazol-2-yl)pyridin-2-yl)oxy)-3-methylbutan-2-yl)amino)benzamido)propanoic Acid]
– | – | – | 0.215 | 0.3572 | CC(C)[C@@H](COc1ccc(-c2ccc(Cl)cc2Cl)cn1)Nc1ccc(C(=O)NCCC(=O)O)cn1 [Compound 16-1, (S)-3-(6-((1-((5-(2,4-dichlorophenyl)pyridin-2-yl)oxy)-3-methylbutan-2-yl)amino)nicotinamido)propanoic Acid]
– | – | – | 0.528 | 0.2393 | CC(C)[C@@H](COc1ccc(-c2cc3ccccc3o2)cn1)Nc1ccc(C(=O)NCCC(=O)O)cn1 [Compound 16-2, (S)-3-(6-((1-((5-(benzofuran-2-yl)pyridin-2-yl)oxy)-3-methylbutan-2-yl)amino)nicotinamido)propanoic Acid]
– | – | – | 2.26 | 4.239 | CC(C)C[C@@H](COc1ccc(-c2ccc(F)cc2F)nn1)Nc1ccc(C(=O)NCCC(=O)O)cc1 [Compound 17-1, (S)-3-(4-((1-((6-(2,4-difluorophenyl)pyridazin-3-yl)oxy)-4-methylpentan-2-yl)amino)benzamido)propanoic Acid]
– | – | – | 0.139 | 0.716 | CC(C)C[C@@H](COc1ccc(-c2ccc(Cl)cc2Cl)nn1)Nc1ccc(C(=O)NCCC(=O)O)cc1 [Compound 17-2, (S)-3-(4-((1-((6-(2,4-dichlorophenyl)pyridazin-3-yl)oxy)-4-methylpentan-2-yl)amino)benzamido)propanoic Acid]
– | – | – | 0.609 | 1.266 | CC[C@H](C)[C@@H](COc1ccc(-c2ccc(C(F)(F)F)cc2Cl)nn1)Nc1ccc(C(=O)NCCC(=O)O)cc1 [Compound 17-4, 3-(4-(((2S,3S)-1-((6-(2-chloro-4-(trifluoromethyl)phenyl)pyridazin-3-yl)oxy)-3-methylpentan-2-yl)amino)benzamido)propanoic Acid]
